Results as given in patent publication US20240335372A1, “Sustained-Release Vaginal Films” (priority 2021, published 2024).
Read-outs that look alike come from different tables or passages of the source. One block for each molecule: values may come before it.

What was measured:
[1] = In vitro drug release of APIs from the extended-release polymer matrix film (Eudragit with PLGA); format: physicochemical; details: FIG. 3; API in Eudragit/PLGA film
Description: An initial screening study was conducted to identify suitable polymers for this application.
Based on visual disintegration it was identified that only the combination of PLGA and Eudragit polymers was successful in extending the disintegration time (FIG. 2). […] This burst release could be attributed to the hydrophilic nature of the drug.

[2] = Macaque (NHP) pharmacokinetic study after vaginal film administration: vaginal swabs, plasma, PBMCs
Description: In NHP film evaluations, both vaginal fluid and blood components (e.g. plasma) samples were collected for at least 31 days post-film administration to assess drug levels and evaluate vaginal release and systemic exposure. […] In study 2, MPT films with increased LNG dose (e.g., 3.5 mg vs. 1 mg) were evaluated. […] Study 3 utilized the same formulation developed for Study 2 by simply replacing LNG with ENG.
The developed MPT film was administered in six macaques.

[3] = EFdA-TP elimination half-life in macaques; format: in vivo; details: macaques vs humans
[4] = humans; cited from earlier work
[5] = macaques; cited from earlier work

SMILES: CC(C)OC(=O)[C@H](C)N[P@](=O)(OC[C@H]1O[C@@H](n2ccc(=O)[nH]c2=O)[C@](C)(F)[C@@H]1O)Oc1ccccc1 [SBV, Sofosbuvir]
drug release profile in the extended-release polymer matrix [1]: burst release

detectable levels present in the vaginal fluid until day ([2]; female, macaque, in vivo): 31 days
detected in swabs until day ([2]; female, macaque, in vivo): 31 days
duration of release, vaginal swab and plasma levels ([2]; female, macaque, in vivo): 30 days
animals above BLQ ([2]; female, macaque, in vivo, 28 day): 2/3
animals above BLQ ([2]; female, macaque, in vivo, 31 day): 1/3
drug levels in vivo ([2]; in vivo): sustained drug levels
plasma half-life compared with previously reported values after oral administration ([2]; in vivo): significantly higher
SMILES: C#C[C@]1(CO)O[C@@H](n2cnc3c(N)nc(F)nc32)C[C@@H]1O [EFdA, 4′-Ethynyl-2-fluoro-2′-deoxyadenosine]

drug levels in vivo ([2]; in vivo): sustained drug levels
SMILES: C#C[C@]1(O)CC[C@H]2[C@@H]3CCC4=CC(=O)CC[C@@H]4[C@H]3C(=C)C[C@@]21CC [ENG, etonogestrel]

fold shorter elimination half-life in macaques than in humans [3]: 4-5 times
day until which PBMC levels were above the target (0.05 pmol/10^6 PBMCs) ([2]; MPT film LNG 16 mg, EFdA 14 mg, six macaques): ≥ 14 day
average concentration in PBMCs, remained detectable until day 31 ([2]; MPT film LNG 16 mg, EFdA 14 mg, six macaques, day 31): 0.018 pmol
SMILES: C#C[C@]1(COP(=O)(O)OP(=O)(O)OP(=O)(O)O)O[C@@H](n2cnc3c(N)nc(F)nc32)C[C@@H]1O [EFdA-TP]
elimination half-life [4]: 190 h
elimination half-life [5]: ~40 h

drug release profile in the extended-release polymer matrix [1]: burst release
SMILES: C=C1[C@H](CO)[C@@H](O)C[C@@H]1n1cnc2c(=O)[nH]c(N)nc21 [ETV, Entecavir]

animals above BLQ ([2]; female, macaque, in vivo): 0/3
animals with swab levels above BLQ ([2]; female, macaque, in vivo): 2/3
detectable levels present in the vaginal fluid until day ([2]; female, macaque, in vivo): 31 days
duration of release, vaginal swab and plasma levels ([2]; female, macaque, in vivo): 30 days
animals above BLQ ([2]; female, macaque, in vivo, 7 day): 1/3
plasma half-life compared with previously reported values after oral administration ([2]; in vivo): significantly higher
SMILES: C#C[C@]1(O)CC[C@H]2[C@@H]3CCC4=CC(=O)CC[C@@H]4[C@H]3CC[C@@]21CC [LNG, levonorgestrel]

SMILES: CCN1C[C@H](C)n2c(c(O)c3c(=O)n(Cc4ccc(F)c(Cl)c4)nc(C(=O)NC)c32)C1=O [MK-2048]
drug release profile in the extended-release polymer matrix [1]: extended release
